{
  "source": "paper PMC9186362",
  "about": "“Design and biological evaluation of substituted 5,7-dihydro-6H-indolo[2,3-c]quinolin-6-one as novel selective Haspin inhibitors” (Journal of Enzyme Inhibition and Medicinal Chemistry, 2022)",
  "experiment_in_all_cases": "SelectScreen ZLYTE",
  "type_in_all_cases": "biochemical",
  "key": {"[1]": {"molecular_target": "T1, JAK2 JH1 JH2 (Homo sapiens, UniProt O60674)", "T1 construct": "JAK2 JH1 JH2; purchased Life Technologies", "T1 sequence (O60674 532-1132 limits assumed)": "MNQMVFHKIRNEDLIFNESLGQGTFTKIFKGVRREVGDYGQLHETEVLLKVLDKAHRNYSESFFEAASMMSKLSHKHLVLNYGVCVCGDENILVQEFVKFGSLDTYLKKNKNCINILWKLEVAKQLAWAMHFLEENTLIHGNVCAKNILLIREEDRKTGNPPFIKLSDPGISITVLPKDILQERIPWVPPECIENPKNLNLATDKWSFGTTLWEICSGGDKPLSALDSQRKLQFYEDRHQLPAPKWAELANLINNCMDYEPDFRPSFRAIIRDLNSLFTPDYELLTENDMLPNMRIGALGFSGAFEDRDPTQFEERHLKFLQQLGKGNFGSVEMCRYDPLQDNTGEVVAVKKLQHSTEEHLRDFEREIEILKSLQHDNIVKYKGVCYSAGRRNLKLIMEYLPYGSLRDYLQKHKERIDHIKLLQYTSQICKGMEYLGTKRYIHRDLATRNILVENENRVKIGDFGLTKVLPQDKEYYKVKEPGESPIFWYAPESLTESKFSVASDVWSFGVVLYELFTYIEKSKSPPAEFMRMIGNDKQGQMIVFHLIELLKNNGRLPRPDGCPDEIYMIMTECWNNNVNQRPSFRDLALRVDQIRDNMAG", "details": "ATP Km, read-out: Percentage of inhibition", "how_it_was_run": "(§1)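 The test compound was screened at a single concentration of 1 μM across a broad commercial kinase selectivity panel, and activity against each kinase is given as percent inhibition.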"}, "[2]": {"molecular_target": "T2, ABL1 F317L (Homo sapiens, UniProt P00519, F317L)", "T2 construct": "purchased Life Technologies (SelectScreen)", "details": "ATP Km, read-out: Percentage of inhibition", "how_it_was_run": "as §1"}, "[3]": {"molecular_target": "T3, PDGFRA (PDGFR alpha) (Homo sapiens, UniProt P16234)", "T3 construct": "purchased Life Technologies (SelectScreen Whole Panel service)", "details": "ATP Km, read-out: Percentage of inhibition", "how_it_was_run": "as §1"}, "[4]": {"molecular_target": "T4, PRKCB1 (PKC beta I) (Homo sapiens, UniProt P05771)", "T4 construct": "purchased Life Technologies (SelectScreen)", "details": "ATP Km, read-out: Percentage of inhibition", "how_it_was_run": "as §1"}, "[5]": {"molecular_target": "PRKCQ (PKC theta) (Homo sapiens, UniProt Q04759)", "details": "ATP Km, read-out: Percentage of inhibition", "how_it_was_run": "as §1"}, "[6]": {"molecular_target": "T5, NEK4 (Homo sapiens, UniProt P51957)", "T5 construct": "purchased Life Technologies", "details": "ATP Km, read-out: Percentage of inhibition", "how_it_was_run": "as §1"}, "[7]": {"molecular_target": "TXK (Homo sapiens, UniProt P42681)", "details": "ATP Km, read-out: Percentage of inhibition", "how_it_was_run": "as §1"}, "[8]": {"molecular_target": "MAPK14 (p38 alpha) Direct (Homo sapiens, UniProt Q16539)", "sequence (Q16539 whole entry)": "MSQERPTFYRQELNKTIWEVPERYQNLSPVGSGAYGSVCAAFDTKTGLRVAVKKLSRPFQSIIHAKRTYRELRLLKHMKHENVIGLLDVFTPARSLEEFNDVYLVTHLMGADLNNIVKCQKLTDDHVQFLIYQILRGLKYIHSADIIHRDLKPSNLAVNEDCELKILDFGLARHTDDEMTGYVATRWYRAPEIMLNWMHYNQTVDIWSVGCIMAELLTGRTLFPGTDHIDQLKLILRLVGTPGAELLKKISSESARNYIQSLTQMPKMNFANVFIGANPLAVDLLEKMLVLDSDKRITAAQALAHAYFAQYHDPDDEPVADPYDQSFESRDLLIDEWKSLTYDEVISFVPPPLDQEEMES", "details": "ATP Km, read-out: Percentage of inhibition", "how_it_was_run": "as §1"}, "[9]": {"molecular_target": "T6, STK3 (MST2) (Homo sapiens, UniProt Q13188)", "T6 construct": "purchased Life Technologies (SelectScreen Whole Panel)", "details": "ATP Km, read-out: Percentage of inhibition", "how_it_was_run": "as §1"}, "[10]": {"molecular_target": "T7, CSNK1G3 (CK1 gamma 3) (Homo sapiens, UniProt Q9Y6M4)", "T7 construct": "purchased Life Technologies", "details": "ATP Km, read-out: Percentage of inhibition", "how_it_was_run": "as §1"}, "[11]": {"molecular_target": "PDK1 (Homo sapiens, UniProt O15530)", "details": "ATP 100 µM, read-out: Percentage of inhibition", "how_it_was_run": "as §1"}, "[12]": {"molecular_target": "T8, ADRBK1 (GRK2) (Homo sapiens, UniProt P25098)", "T8 construct": "purchased Life Technologies (SelectScreen Whole Panel)", "details": "ATP Km, read-out: Percentage of inhibition", "how_it_was_run": "as §1"}, "[13]": {"molecular_target": "T9, FGFR1 (Homo sapiens, UniProt P11362)", "T9 construct": "purchased Life Technologies", "T9 sequence (P11362 22-822)": "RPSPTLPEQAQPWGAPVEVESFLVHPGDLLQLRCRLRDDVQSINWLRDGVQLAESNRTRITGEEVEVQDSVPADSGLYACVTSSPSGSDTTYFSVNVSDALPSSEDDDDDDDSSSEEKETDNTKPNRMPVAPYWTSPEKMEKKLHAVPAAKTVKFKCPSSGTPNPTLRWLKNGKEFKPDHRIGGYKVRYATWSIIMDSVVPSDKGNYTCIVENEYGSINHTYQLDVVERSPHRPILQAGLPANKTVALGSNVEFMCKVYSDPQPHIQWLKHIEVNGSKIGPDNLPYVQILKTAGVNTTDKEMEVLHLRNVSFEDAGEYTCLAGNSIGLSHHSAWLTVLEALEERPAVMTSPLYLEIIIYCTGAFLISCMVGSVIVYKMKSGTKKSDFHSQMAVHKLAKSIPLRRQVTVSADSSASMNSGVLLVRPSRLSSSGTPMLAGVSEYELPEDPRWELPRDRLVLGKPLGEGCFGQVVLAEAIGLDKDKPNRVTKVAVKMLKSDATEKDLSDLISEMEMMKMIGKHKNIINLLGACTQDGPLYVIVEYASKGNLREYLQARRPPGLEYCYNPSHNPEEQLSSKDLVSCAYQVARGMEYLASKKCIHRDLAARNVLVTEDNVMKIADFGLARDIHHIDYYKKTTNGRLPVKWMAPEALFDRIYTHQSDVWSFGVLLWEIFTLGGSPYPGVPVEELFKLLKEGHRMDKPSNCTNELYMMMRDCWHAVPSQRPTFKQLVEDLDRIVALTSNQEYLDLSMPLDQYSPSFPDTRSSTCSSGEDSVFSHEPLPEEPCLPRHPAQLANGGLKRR", "details": "ATP Km, read-out: Percentage of inhibition", "how_it_was_run": "as §1"}, "[14]": {"molecular_target": "T10, CDC42 BPG (MRCKG) (Homo sapiens, UniProt Q6DT37)", "T10 construct": "purchased Life Technologies (SelectScreen Whole Panel service)", "details": "ATP Km, read-out: Percentage of inhibition", "how_it_was_run": "as §1"}, "[15]": {"molecular_target": "AMPK (A1/B2/G3) (Homo sapiens, UniProt Q13131)", "details": "ATP Km, read-out: Percentage of inhibition", "how_it_was_run": "as §1"}, "[16]": {"molecular_target": "T11, PAK6 (Homo sapiens, UniProt Q9NQU5)", "T11 construct": "purchased Life Technologies", "details": "ATP Km, read-out: Percentage of inhibition", "how_it_was_run": "as §1"}, "[17]": {"molecular_target": "T12, MAP3K19 (YSK4) (Homo sapiens, UniProt Q56UN5)", "T12 construct": "purchased Life Technologies (SelectScreen Whole Panel)", "details": "ATP Km, read-out: Percentage of inhibition", "how_it_was_run": "as §1"}, "[18]": {"molecular_target": "T13, PRKG1 (Homo sapiens, UniProt Q13976)", "T13 construct": "purchased Life Technologies (SelectScreen Whole Panel service)", "details": "ATP Km, read-out: Percentage of inhibition", "how_it_was_run": "as §1"}, "[19]": {"molecular_target": "T14, RPS6KB2 (p70S6Kb) (Homo sapiens, UniProt Q9UBS0)", "T14 construct": "purchased Life Technologies (SelectScreen)", "details": "ATP Km, read-out: Percentage of inhibition", "how_it_was_run": "as §1"}, "[20]": {"molecular_target": "EPHB2 (Homo sapiens, UniProt P29323)", "details": "ATP Km, read-out: Percentage of inhibition", "how_it_was_run": "as §1"}, "[21]": {"molecular_target": "T15, LTK (TYK1) (Homo sapiens, UniProt P29376)", "T15 construct": "purchased Life Technologies (SelectScreen Whole Panel service)", "T15 sequence (P29376 17-864)": "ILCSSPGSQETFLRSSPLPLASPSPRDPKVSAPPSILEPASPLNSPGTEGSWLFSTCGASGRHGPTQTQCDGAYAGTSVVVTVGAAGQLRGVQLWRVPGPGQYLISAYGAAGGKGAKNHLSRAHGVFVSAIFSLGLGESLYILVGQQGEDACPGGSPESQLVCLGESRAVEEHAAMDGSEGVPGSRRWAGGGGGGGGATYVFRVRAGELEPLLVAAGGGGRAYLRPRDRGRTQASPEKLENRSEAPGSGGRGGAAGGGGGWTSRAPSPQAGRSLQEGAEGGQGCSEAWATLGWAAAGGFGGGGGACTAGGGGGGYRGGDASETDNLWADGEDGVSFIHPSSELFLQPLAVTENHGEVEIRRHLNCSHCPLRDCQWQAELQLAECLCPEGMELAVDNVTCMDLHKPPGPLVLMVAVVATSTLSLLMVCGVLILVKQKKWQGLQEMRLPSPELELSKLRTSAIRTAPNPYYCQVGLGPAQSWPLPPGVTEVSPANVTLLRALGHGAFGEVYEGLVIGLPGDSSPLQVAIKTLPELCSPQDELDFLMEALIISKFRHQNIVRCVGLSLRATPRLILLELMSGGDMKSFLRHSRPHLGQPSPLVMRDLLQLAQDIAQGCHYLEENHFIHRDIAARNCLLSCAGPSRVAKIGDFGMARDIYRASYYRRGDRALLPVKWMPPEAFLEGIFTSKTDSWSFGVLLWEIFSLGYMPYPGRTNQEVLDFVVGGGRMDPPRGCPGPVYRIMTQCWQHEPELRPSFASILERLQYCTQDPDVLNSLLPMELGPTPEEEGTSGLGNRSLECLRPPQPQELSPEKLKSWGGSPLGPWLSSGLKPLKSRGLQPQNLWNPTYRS", "details": "ATP Km, read-out: Percentage of inhibition", "how_it_was_run": "as §1"}, "[22]": {"molecular_target": "PRKCG (PKC gamma) (Homo sapiens, UniProt P05129)", "details": "ATP Km, read-out: Percentage of inhibition", "how_it_was_run": "as §1"}, "[23]": {"molecular_target": "T16, BLK (Homo sapiens, UniProt P51451)", "T16 construct": "purchased Life Technologies (SelectScreen service)", "details": "ATP Km, read-out: Percentage of inhibition", "how_it_was_run": "as §1"}, "[24]": {"molecular_target": "T17, MUSK (Homo sapiens, UniProt O15146)", "T17 construct": "purchased Life Technologies (SelectScreen Whole Panel service)", "T17 sequence (O15146 24-869)": "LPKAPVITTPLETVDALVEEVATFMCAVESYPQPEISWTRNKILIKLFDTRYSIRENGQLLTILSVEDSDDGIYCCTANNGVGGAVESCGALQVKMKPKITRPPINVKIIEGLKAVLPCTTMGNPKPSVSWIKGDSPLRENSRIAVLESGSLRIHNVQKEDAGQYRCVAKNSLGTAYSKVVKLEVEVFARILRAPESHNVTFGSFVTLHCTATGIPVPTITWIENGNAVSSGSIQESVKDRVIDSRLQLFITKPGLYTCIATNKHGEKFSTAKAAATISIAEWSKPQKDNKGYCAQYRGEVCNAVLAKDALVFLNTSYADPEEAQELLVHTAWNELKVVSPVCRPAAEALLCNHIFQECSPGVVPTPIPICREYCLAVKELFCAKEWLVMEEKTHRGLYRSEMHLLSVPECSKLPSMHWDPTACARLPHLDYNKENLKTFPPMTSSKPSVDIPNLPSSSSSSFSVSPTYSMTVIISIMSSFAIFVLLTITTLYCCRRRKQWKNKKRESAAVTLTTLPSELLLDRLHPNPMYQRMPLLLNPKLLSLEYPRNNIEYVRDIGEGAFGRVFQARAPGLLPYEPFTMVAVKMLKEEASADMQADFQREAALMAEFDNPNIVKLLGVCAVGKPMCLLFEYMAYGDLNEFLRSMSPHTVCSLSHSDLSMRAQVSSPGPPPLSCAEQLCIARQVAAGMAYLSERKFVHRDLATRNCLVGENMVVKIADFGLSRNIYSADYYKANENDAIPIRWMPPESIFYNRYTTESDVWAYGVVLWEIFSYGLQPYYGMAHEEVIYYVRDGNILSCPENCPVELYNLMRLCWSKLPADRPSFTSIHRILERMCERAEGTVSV", "details": "ATP Km, read-out: Percentage of inhibition", "how_it_was_run": "as §1"}, "[25]": {"molecular_target": "YES1 (Homo sapiens, UniProt P07947)", "details": "ATP Km, read-out: Percentage of inhibition", "how_it_was_run": "as §1"}, "[26]": {"molecular_target": "T18, MAPKAPK2 (Homo sapiens, UniProt P49137)", "T18 construct": "purchased Life Technologies", "details": "ATP Km, read-out: Percentage of inhibition", "how_it_was_run": "as §1"}, "[27]": {"molecular_target": "T19, PASK (Homo sapiens, UniProt Q96RG2)", "T19 construct": "purchased Life Technologies (SelectScreen Whole Panel)", "details": "ATP Km, read-out: Percentage of inhibition", "how_it_was_run": "as §1"}, "[28]": {"molecular_target": "T20, MET M1250T (Homo sapiens, UniProt P08581, M1250T)", "T20 construct": "purchased Life Technologies (SelectScreen Whole Panel service)", "details": "ATP Km, read-out: Percentage of inhibition", "how_it_was_run": "as §1"}, "[29]": {"molecular_target": "T21, CAMK2B (CaMKII beta) (Homo sapiens, UniProt Q13554)", "T21 construct": "purchased Life Technologies (SelectScreen Whole Panel service)", "details": "ATP Km, read-out: Percentage of inhibition", "how_it_was_run": "as §1"}, "[30]": {"molecular_target": "T22, DNA-PK (Homo sapiens, UniProt P78527)", "T22 construct": "purchased Life Technologies (SelectScreen Whole Panel)", "details": "ATP Km, read-out: Percentage of inhibition", "how_it_was_run": "as §1"}, "[31]": {"molecular_target": "PAK4 (Homo sapiens, UniProt O96013)", "sequence (O96013 whole entry)": "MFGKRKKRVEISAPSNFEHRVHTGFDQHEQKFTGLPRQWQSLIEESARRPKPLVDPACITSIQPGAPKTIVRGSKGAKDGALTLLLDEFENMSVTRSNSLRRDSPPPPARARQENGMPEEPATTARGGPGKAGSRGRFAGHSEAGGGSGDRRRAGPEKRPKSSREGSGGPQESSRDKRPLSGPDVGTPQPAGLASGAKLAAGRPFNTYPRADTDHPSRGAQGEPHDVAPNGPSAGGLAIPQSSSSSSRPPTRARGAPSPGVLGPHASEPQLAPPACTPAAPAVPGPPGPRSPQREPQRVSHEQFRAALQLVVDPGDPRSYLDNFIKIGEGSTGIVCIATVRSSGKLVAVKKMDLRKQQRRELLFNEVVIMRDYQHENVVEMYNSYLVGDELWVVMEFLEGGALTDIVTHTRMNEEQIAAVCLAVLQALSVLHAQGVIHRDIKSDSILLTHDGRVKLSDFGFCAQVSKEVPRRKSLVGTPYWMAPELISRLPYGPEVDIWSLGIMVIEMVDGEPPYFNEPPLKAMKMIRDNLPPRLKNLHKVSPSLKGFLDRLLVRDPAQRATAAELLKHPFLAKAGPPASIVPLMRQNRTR", "details": "ATP Km, read-out: Percentage of inhibition", "how_it_was_run": "as §1"}, "[32]": {"molecular_target": "T23, KIT V560G (Homo sapiens, UniProt P10721, V560G)", "T23 construct": "purchased Life Technologies", "details": "ATP Km, read-out: Percentage of inhibition", "how_it_was_run": "as §1"}, "[33]": {"molecular_target": "CAMK1G (CAMKI gamma) (Homo sapiens, UniProt Q96NX5)", "sequence (Q96NX5 whole entry)": "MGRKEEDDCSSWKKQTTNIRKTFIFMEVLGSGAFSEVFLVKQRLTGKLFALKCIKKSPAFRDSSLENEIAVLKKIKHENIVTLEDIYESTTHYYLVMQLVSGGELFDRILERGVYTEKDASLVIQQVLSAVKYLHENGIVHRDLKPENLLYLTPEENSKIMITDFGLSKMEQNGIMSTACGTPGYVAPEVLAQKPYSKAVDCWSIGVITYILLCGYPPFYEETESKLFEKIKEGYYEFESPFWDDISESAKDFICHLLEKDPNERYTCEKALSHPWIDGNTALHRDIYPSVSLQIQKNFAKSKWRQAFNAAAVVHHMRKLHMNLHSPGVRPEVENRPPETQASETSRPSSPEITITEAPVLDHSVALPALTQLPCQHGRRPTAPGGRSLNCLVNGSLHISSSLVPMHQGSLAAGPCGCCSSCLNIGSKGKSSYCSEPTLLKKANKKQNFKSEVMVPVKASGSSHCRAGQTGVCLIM", "details": "ATP Km, read-out: Percentage of inhibition", "how_it_was_run": "as §1"}, "[34]": {"molecular_target": "T24, TEK (Tie2) (Homo sapiens, UniProt Q02763)", "T24 construct": "purchased Life Technologies (SelectScreen Whole Panel service)", "details": "ATP Km, read-out: Percentage of inhibition", "how_it_was_run": "as §1"}, "[35]": {"molecular_target": "MAPK1 (ERK2) (Homo sapiens, UniProt P28482)", "details": "ATP Km, read-out: Percentage of inhibition", "how_it_was_run": "as §1"}, "[36]": {"molecular_target": "T25, TNK1 (Homo sapiens, UniProt Q13470)", "T25 construct": "purchased Life Technologies", "details": "ATP Km, read-out: Percentage of inhibition", "how_it_was_run": "as §1"}, "[37]": {"molecular_target": "T26, PRKCN (PKD3) (Homo sapiens, UniProt O94806)", "T26 construct": "purchased Life Technologies", "details": "ATP Km, read-out: Percentage of inhibition", "how_it_was_run": "as §1"}, "[38]": {"molecular_target": "T27, CSNK1G2 (CK1 gamma 2) (Homo sapiens, UniProt P78368)", "T27 construct": "purchased Life Technologies", "T27 sequence (P78368 whole entry)": "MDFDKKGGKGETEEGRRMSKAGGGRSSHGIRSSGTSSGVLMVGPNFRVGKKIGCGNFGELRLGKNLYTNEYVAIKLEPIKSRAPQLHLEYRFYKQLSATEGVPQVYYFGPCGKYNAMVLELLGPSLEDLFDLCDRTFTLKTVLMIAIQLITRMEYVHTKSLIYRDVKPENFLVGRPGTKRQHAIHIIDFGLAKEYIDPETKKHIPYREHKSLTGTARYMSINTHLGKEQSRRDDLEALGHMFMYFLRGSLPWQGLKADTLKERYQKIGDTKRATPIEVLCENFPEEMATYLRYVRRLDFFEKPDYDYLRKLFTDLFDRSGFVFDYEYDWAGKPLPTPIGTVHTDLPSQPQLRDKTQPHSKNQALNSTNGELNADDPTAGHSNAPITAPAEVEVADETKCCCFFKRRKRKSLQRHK", "details": "ATP Km, read-out: Percentage of inhibition", "how_it_was_run": "as §1"}},
  "data": [
    {"smiles": "COc1ccc2[nH]c3c(=O)[nH]c4ccc(O)cc4c3c2c1", "note": "[Compound 55, 2-Hydroxy-10-methoxy-5,7-dihydro-6H-indolo[2,3-c]quinolin-6-one]", "values": [
      {"measurement": "inhibition at 1 µM", "setting": "[1]", "result": 33, "unit": "%"},
      {"measurement": "inhibition at 1 µM", "setting": "[2]", "result": 9, "unit": "%"},
      {"measurement": "inhibition at 1 µM", "setting": "[3]", "result": 43, "unit": "%"},
      {"measurement": "inhibition at 1 µM", "setting": "[4]", "result": 8, "unit": "%"},
      {"measurement": "inhibition at 1 µM", "setting": "[5]", "result": 7, "unit": "%"},
      {"measurement": "inhibition at 1 µM", "setting": "[6]", "result": 28, "unit": "%"},
      {"measurement": "inhibition at 1 µM", "setting": "[7]", "result": 22, "unit": "%"},
      {"measurement": "inhibition at 1 µM", "setting": "[8]", "result": 6, "unit": "%"},
      {"measurement": "inhibition at 1 µM", "setting": "[9]", "result": 99, "unit": "%"},
      {"measurement": "inhibition at 1 µM", "setting": "[10]", "result": 28, "unit": "%"},
      {"measurement": "inhibition at 1 µM", "setting": "[11]", "result": 15, "unit": "%"},
      {"measurement": "inhibition at 1 µM", "setting": "[12]", "result": -3, "unit": "%"},
      {"measurement": "inhibition at 1 µM", "setting": "[13]", "result": 38, "unit": "%"},
      {"measurement": "inhibition at 1 µM", "setting": "[14]", "result": 12, "unit": "%"},
      {"measurement": "inhibition at 1 µM", "setting": "[15]", "result": 67, "unit": "%"},
      {"measurement": "inhibition at 1 µM", "setting": "[16]", "result": 4, "unit": "%"},
      {"measurement": "inhibition at 1 µM", "setting": "[17]", "result": 49, "unit": "%"},
      {"measurement": "inhibition at 1 µM", "setting": "[18]", "result": 11, "unit": "%"},
      {"measurement": "inhibition at 1 µM", "setting": "[19]", "result": 8, "unit": "%"},
      {"measurement": "inhibition at 1 µM", "setting": "[20]", "result": 21, "unit": "%"},
      {"measurement": "inhibition at 1 µM", "setting": "[21]", "result": 16, "unit": "%"},
      {"measurement": "inhibition at 1 µM", "setting": "[22]", "result": 14, "unit": "%"},
      {"measurement": "inhibition at 1 µM", "setting": "[23]", "result": 86, "unit": "%"},
      {"measurement": "inhibition at 1 µM", "setting": "[24]", "result": 18, "unit": "%"},
      {"measurement": "inhibition at 1 µM", "setting": "[25]", "result": 61, "unit": "%"},
      {"measurement": "inhibition at 1 µM", "setting": "[26]", "result": 2, "unit": "%"},
      {"measurement": "inhibition at 1 µM", "setting": "[27]", "result": 49, "unit": "%"},
      {"measurement": "inhibition at 1 µM", "setting": "[28]", "result": 12, "unit": "%"},
      {"measurement": "inhibition at 1 µM", "setting": "[29]", "result": 12, "unit": "%"},
      {"measurement": "inhibition at 1 µM", "setting": "[30]", "result": 54, "unit": "%"},
      {"measurement": "inhibition at 1 µM", "setting": "[31]", "result": 15, "unit": "%"},
      {"measurement": "inhibition at 1 µM", "setting": "[32]", "result": 27, "unit": "%"},
      {"measurement": "inhibition at 1 µM", "setting": "[33]", "result": 14, "unit": "%"},
      {"measurement": "inhibition at 1 µM", "setting": "[34]", "result": 13, "unit": "%"},
      {"measurement": "inhibition at 1 µM", "setting": "[35]", "result": 19, "unit": "%"},
      {"measurement": "inhibition at 1 µM", "setting": "[36]", "result": 30, "unit": "%"},
      {"measurement": "inhibition at 1 µM", "setting": "[37]", "result": 40, "unit": "%"},
      {"measurement": "inhibition at 1 µM", "setting": "[38]", "result": 33, "unit": "%"}
    ]}
  ]
}
